From PubChem BioAssay AID328 (DTP/NCI, 2004) come the findings set out here.

SMILES strings stand for the structures. Several values for one entry are separate records, joined by “and”; a condition that tells them apart may be missing. Equal entries are not always repeated. Inconclusive results and toxic doses are left out.

For the experiment, the system named is BDF1 mice, P388 leukemia ip, median survival T/C. The experiment in a line: NCI In Vivo Anticancer Drug Screen. Data for tumor model P388 Leukemia (intraperitoneal) in B6D2F1 (BDF1) mice. The conditions noted are these: endpoint: median survival time, higher = longer survival. The procedure, abridged: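 Each value expresses how treatment altered survival: treated-mouse outcome over vehicle-mouse outcome, both groups bearing the transplanted tumour.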

[1] abbreviates: dose: 100.0 mg/kg/injection, schedule: Q04DX003 (ip), vehicle: saline with Tween-80.
Setting [2] is: dose: 200.0 mg/kg/injection, schedule: Q04DX003 (ip), vehicle: saline with Tween-80.
The mark [3] stands for this setting: dose: 400.0 mg/kg/injection, schedule: Q04DX003 (ip), vehicle: saline with Tween-80.
[4] abbreviates: dose: 100.0 mg/kg/injection, schedule: Q01DX009 (ip), vehicle: saline with Tween-80.
[5] abbreviates: dose: 100.0 mg/kg/injection, schedule: Q04DX003 (ip), vehicle: saline.
Where [6] appears, read: dose: 200.0 mg/kg/injection, schedule: Q01DX009 (ip), vehicle: saline with Tween-80.
Setting [7] is: dose: 200.0 mg/kg/injection, schedule: Q04DX003 (ip), vehicle: saline.
[8] abbreviates: dose: 100.0 mg/kg/injection, schedule: Q01DX009 (ip), vehicle: Klucel (hydroxypropylcellulose) (HPC).
Where [9] appears, read: dose: 100.0 mg/kg/injection, schedule: Q04DX003 (ip), vehicle: Klucel (hydroxypropylcellulose) (HPC).
Setting [10] is: dose: 200.0 mg/kg/injection, schedule: Q01DX009 (ip), vehicle: Klucel (hydroxypropylcellulose) (HPC).
The mark [11] stands for this setting: dose: 200.0 mg/kg/injection, schedule: Q04DX003 (ip), vehicle: Klucel (hydroxypropylcellulose) (HPC).
[12] abbreviates: dose: 400.0 mg/kg/injection, schedule: Q01DX009 (ip), vehicle: Klucel (hydroxypropylcellulose) (HPC).
[13] abbreviates: dose: 400.0 mg/kg/injection, schedule: Q04DX003 (ip), vehicle: Klucel (hydroxypropylcellulose) (HPC).
Where [14] appears, read: dose: 400.0 mg/kg/injection, schedule: Q01DX009 (ip), vehicle: saline with Tween-80.

For `c1ccc(CN2CCn3nccc32)cc1`, the T/C (dose: 6.25 mg/kg/injection, schedule: Q01DX009 (ip), vehicle: other) was 98 % of control; the T/C (dose: 12.5 mg/kg/injection, schedule: Q01DX009 (ip), vehicle: other) is 90 % of control; the T/C (dose: 12.5 mg/kg/injection, schedule: Q04DX003 (ip), vehicle: other) was 104 % of control; the T/C (dose: 25.0 mg/kg/injection, schedule: Q01DX009 (ip), vehicle: other) was 91 % of control; the T/C (dose: 25.0 mg/kg/injection, schedule: Q04DX003 (ip), vehicle: other) was 91 % of control; the T/C (dose: 50.0 mg/kg/injection, schedule: Q01DX009 (ip), vehicle: other) was 94 % of control. The T/C reads like this: (dose: 50.0 mg/kg/injection, schedule: Q04DX003 (ip), vehicle: other) 91 % of control; (dose: 100.0 mg/kg/injection, schedule: Q01DX009 (ip), vehicle: other) 92 % of control; (dose: 100.0 mg/kg/injection, schedule: Q04DX003 (ip), vehicle: other) 92 % of control; (dose: 200.0 mg/kg/injection, schedule: Q04DX003 (ip), vehicle: other) 96 % of control.
Take `O=c1[nH]c(C(F)(F)F)nc2c1nc1n2CCC1`: the T/C is 104 % of control under setting [1], 100 % of control under setting [2] and 100 % of control under setting [3].
As to `CCCCCCCCCCCC[N+](C)(C)C` (tested in a mixture with another compound), the T/C (dose: 9.2 mg/kg/injection, schedule: Q01DX009 (ip), vehicle: saline) was 107 % of control.
As for `O=C(Oc1ccc([N+](=O)[O-])cc1)c1ccc(C[n+]2ccccc2)cc1`, the T/C is, setting by setting: (dose: 50.0 mg/kg/injection, schedule: Q01DX009 (ip), vehicle: saline with Tween-80) 91 % of control; (dose: 50.0 mg/kg/injection, schedule: Q01DX009 (ip), vehicle: saline) 89 % of control; (dose: 50.0 mg/kg/injection, schedule: Q04DX003 (ip), vehicle: saline) 91 % of control; under setting [4], 109 % of control; (dose: 100.0 mg/kg/injection, schedule: Q01DX009 (ip), vehicle: saline) 89 % of control; under setting [5], 104 % of control and 108 % of control. Further, the T/C is 116 % of control under setting [6]; 96 % of control (dose: 200.0 mg/kg/injection, schedule: Q01DX009 (ip), vehicle: saline); 90 % of control and 100 % of control under setting [7].
For `CCOC(=O)C1CNc2ccccc2N1` (configuration not stated), the T/C is 110 % of control (dose: 7.18 mg/kg/injection, schedule: Q04DX003 (ip), vehicle: Klucel (hydroxypropylcellulose) (HPC)); 105 % of control (dose: 14.37 mg/kg/injection, schedule: Q04DX003 (ip), vehicle: Klucel (hydroxypropylcellulose) (HPC)); 91 % of control (dose: 28.75 mg/kg/injection, schedule: Q01DX001 (ip), vehicle: Klucel (hydroxypropylcellulose) (HPC)); 105 % of control (dose: 28.75 mg/kg/injection, schedule: Q04DX003 (ip), vehicle: Klucel (hydroxypropylcellulose) (HPC)); 95 % of control (dose: 57.5 mg/kg/injection, schedule: Q01DX001 (ip), vehicle: Klucel (hydroxypropylcellulose) (HPC)); 109 % of control (dose: 57.5 mg/kg/injection, schedule: Q04DX003 (ip), vehicle: Klucel (hydroxypropylcellulose) (HPC)). Also, the T/C is, setting by setting: (dose: 75.0 mg/kg/injection, schedule: Q01DX009 (ip), vehicle: Klucel (hydroxypropylcellulose) (HPC)) 105 % of control; (dose: 115.0 mg/kg/injection, schedule: Q01DX001 (ip), vehicle: Klucel (hydroxypropylcellulose) (HPC)) 91 % of control; (dose: 115.0 mg/kg/injection, schedule: Q01DX009 (ip), vehicle: Klucel (hydroxypropylcellulose) (HPC)) 110 % of control; (dose: 115.0 mg/kg/injection, schedule: Q04DX003 (ip), vehicle: Klucel (hydroxypropylcellulose) (HPC)) 95 % of control; (dose: 170.0 mg/kg/injection, schedule: Q01DX001 (ip), vehicle: Klucel (hydroxypropylcellulose) (HPC)) 104 % of control.
As for `FC(F)(F)COP1SCCS1`, the T/C runs as follows: (dose: 25.0 mg/kg/injection, schedule: Q01DX005 (ip), vehicle: saline with Tween-80) 97 % of control; (dose: 50.0 mg/kg/injection, schedule: Q01DX005 (ip), vehicle: saline with Tween-80) 97 % of control.
With `CCC[CH2][Sn]([CH2]CCC)([CH2]CCC)[S]C(=S)NCCNC(=S)[S][Sn]([CH2]CCC)([CH2]CCC)[CH2]CCC`, the T/C was 113 % of control (dose: 0.78 mg/kg/injection, schedule: Q01DX010 (ip), vehicle: saline); 109 % of control (dose: 1.56 mg/kg/injection, schedule: Q01DX010 (ip), vehicle: saline); 109 % of control (dose: 3.13 mg/kg/injection, schedule: Q01DX010 (ip), vehicle: saline).
Turning to `C=CCCCCCCCCCCCCCC`, the T/C reads like this: (dose: 145.0 mg/kg/injection, schedule: Q01DX010 (ip), vehicle: saline) 104 % of control; (dose: 220.0 mg/kg/injection, schedule: Q01DX010 (ip), vehicle: saline) 113 % of control; (dose: 330.0 mg/kg/injection, schedule: Q01DX010 (ip), vehicle: saline) 104 % of control; (dose: 500.0 mg/kg/injection, schedule: Q01DX010 (ip), vehicle: saline) 118 % of control.
As to `COc1cc(/C(C)=N\O)ccc1O`, the T/C by setting is: (dose: 100.0 mg/kg/injection, schedule: Q01DX001 (ip), vehicle: other) 100 % of control; (dose: 200.0 mg/kg/injection, schedule: Q01DX001 (ip), vehicle: other) 100 % of control; (dose: 400.0 mg/kg/injection, schedule: Q01DX001 (ip), vehicle: other) 100 % of control.
For the compound `O.O.O=c1[nH]cc(CO)c(=O)[nH]1.[NH2-].[NH2-].[Pt+2]`, the T/C was 99 % of control (dose: 3.12 mg/kg/injection, schedule: Q01DX009 (ip), vehicle: Klucel (hydroxypropylcellulose) (HPC)); 88 % of control (dose: 6.25 mg/kg/injection, schedule: Q01DX009 (ip), vehicle: Klucel (hydroxypropylcellulose) (HPC)); 209 % of control (dose: 12.5 mg/kg/injection, schedule: Q01DX009 (ip), vehicle: Klucel (hydroxypropylcellulose) (HPC)); 248 % of control and 211 % of control (dose: 25.0 mg/kg/injection, schedule: Q01DX009 (ip), vehicle: Klucel (hydroxypropylcellulose) (HPC)); 90 % of control (dose: 50.0 mg/kg/injection, schedule: Q01DX009 (ip), vehicle: Klucel (hydroxypropylcellulose) (HPC)).
In the case of `CCOC(=O)c1cnn(-c2ccccc2)c1C`, the T/C by setting is: under setting [8], 104 % of control; under setting [9], 104 % of control; under setting [10], 100 % of control; under setting [11], 87 % of control; under setting [12], 90 % of control; under setting [13], 104 % of control.
As to `COc1cc2ccc(CN3CCCC3C(=O)OCc3ccccc3)cc2cc1OC` (configuration not stated), the T/C under setting [4] is 100 % of control; the T/C under setting [5] was 109 % of control; the T/C under setting [6] was 104 % of control; the T/C under setting [7] is 118 % of control; the T/C under setting [14] was 116 % of control; the T/C (dose: 400.0 mg/kg/injection, schedule: Q04DX003 (ip), vehicle: saline) is 100 % of control.
In the case of `O=C(OCCCl)c1ccc(Cl)cc1`, the T/C is, setting by setting: (dose: 50.0 mg/kg/injection, schedule: Q04DX003 (ip), vehicle: saline with Tween-80) 108 % of control; under setting [1], 100 % of control; under setting [2], 94 % of control; under setting [3], 94 % of control.
As for `CCOC(=O)c1ccc(NS(=O)(=O)c2ccc(C)cc2)cc1`, the T/C is 106 % of control under setting [4], 106 % of control under setting [6] and 88 % of control under setting [14].
As for `O=C(c1ccccc1)N(Nc1ccccc1)c1ccccc1`, the T/C by setting is: under setting [8], 95 % of control; under setting [9], 100 % of control; under setting [10], 109 % of control; under setting [11], 100 % of control; under setting [12], 95 % of control; under setting [13], 100 % of control.
With `[CH3][Ga][CH3].[CH3][Ga][CH3].[CH3][Ga][CH3].[CH3][Ga][CH3].[OH3+].[OH3+].[OH3+].[OH3+]`, the T/C (dose: 2.5 mg/kg/injection, schedule: Q01DX009 (ip), vehicle: saline with Tween-80) was 90 % of control.
